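Exposure lasted 48 hours, with cells grown in 96-well plates and compounds tested at five concentrations. Here, GI50 denotes the concentration required for 50% inhibition of growth. The concentration for full growth arrest is given as TGI.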
Experiments:
Assay in all cases: DTP human tumour cell line panel, 48 h
[1] = system: K-562 leukemia
[2] = system: NCI/ADR-RES ovarian
[3] = system: UACC-257 melanoma
[4] = system: MDA-N
[5] = system: NCI-H460 lung
[6] = system: HCT-15 colon
[7] = system: BT-549 breast
[8] = system: HOP-92 NSCLC
[9] = system: 786-0 renal
[10] = system: RXF 393 renal
[11] = system: SN12C renal

| Structure (SMILES) | GI50 [1] [µM] | TGI [1] [µM] | GI50 [2] [µM] | TGI [2] [µM] | TGI [3] [µM] | TGI [4] [µM] | TGI [5] [µM] | TGI [6] [µM] | TGI [7] [µM] | TGI [8] [µM] | TGI [9] [µM] | TGI [10] [µM] | TGI [11] [µM] |
| --- | --- | --- | --- | --- | --- | --- | --- | --- | --- | --- | --- | --- | --- |
| COc1cc(O)c2c(=O)c(OC)c(-c3ccc(OC)c(OC)c3)oc2c1 | > 100 | > 100 | 62.7 | > 100 | > 100 | > 100 | > 100 | > 100 |  |  |  |  |  |
| COc1cccc(C2c3cc4c(cc3OC3COC(=O)C32)OCO4)c1OC (stereo unspecified) |  |  |  | > 100 | > 100 | > 100 | > 100 | > 100 | > 100 | > 100 | > 100 | > 100 | > 100 |
| CO/N=C1/c2sccc2[C@H](NC(=O)C(Cc2ccccc2)NC(=O)OC(C)(C)C)[C@@H]1O (stereo partly specified) |  | > 100 |  | > 100 | > 100 | > 100 | > 100 | > 100 | > 100 | > 100 |  | > 100 | > 100 |
| O=C1CCCC/C1=C\c1ccc(Cl)c(Cl)c1 |  | 48 |  |  |  |  | 42.6 | 39.3 |  |  |  |  | 31 |
| CCC1C(c2ccccc2O)c2cc3c(cc2OC1N1CCOCC1)OCO3 (stereo unspecified) |  | 31.5 |  |  | 31.6 | 28.6 | 29.7 | 21.4 | 29.3 | 27.6 | 43.9 | 28.9 | 29.4 |
| O=C(c1ccco1)N(C(=O)N1CCN(c2ccccc2)CC1)S(=O)(=O)c1ccccc1 |  | > 100 |  | 55.1 | > 100 | 49.6 | > 100 | > 100 | 87.6 | 73.6 | > 100 |  | 61.9 |
| CN1CCN(P2(=S)Oc3ccc4ccccc4c3-c3c(ccc4ccccc34)O2)CC1 |  | > 76.9 |  | > 71 | > 91.4 |  | 42.1 | > 100 |  | 59.7 |  | > 94.7 | > 100 |
| COC(=O)Cc1c(-c2c(CC(=O)OC)c3ccccc3n2C2OC(COC(C)=O)C(OC(C)=O)C(OC(C)=O)C2OC(C)=O)[nH]c2ccccc12 (stereo unspecified) |  |  |  |  | > 100 | > 100 | > 100 | > 100 | > 100 | > 100 |  |  | > 100 |
| CCCCNc1nc(NC2OCC(OC(C)=O)C(OC(C)=O)C2OC(C)=O)c(N=O)c(=O)n1C (stereo unspecified) |  |  |  | > 10 | > 10 |  | > 10 | > 10 | > 10 | > 10 | > 10 | > 10 | > 10 |
| Nc1nc2c(C(=O)O)c3ccc([N+](=O)[O-])cc3c(=O)n2c2ccccc12 |  | > 100 |  | 52.4 |  | > 100 | > 100 | 71.8 | 95.9 |  | 48.8 | 45.6 | 58.1 |
| O=C(O)c1ccccc1N=Nc1c(O)c(S(=O)(=O)O)cc2cc(S(=O)(=O)O)ccc12 |  | > 100 |  |  | > 100 | > 100 | > 100 | > 100 |  | > 100 | > 100 | > 100 | > 100 |
| CCCCCCCCCCCC[N+](CCCCCCCCCCCC)=C1SCCS1 |  |  |  |  | 21.3 |  | 20.5 | 22.9 |  | 23.1 | 11.8 | 14.8 | 14.6 |
